In US11000033B2, “Ketone or oxime compound, and herbicide” (NISSAN CHEMICAL CORPORATION, priority 2014, dated 2021):

Assays:
Type in all cases: in vivo
Cyperus difformis = assay: Test Example 3: herbicidal effect by foliage application, Wagner pot (symbol E); settings: application herbicide amount 320 g/ha
Method in brief: (§1)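 Alluvial soil was flooded to a depth of 0.1–0.5 cm, seeded with the weeds and rice, and kept in a greenhouse at 25–30 °C. After 14 days of growth, the foliage received a small-sprayer application of emulsion diluted to the intended rate; injury was rated at 3 weeks.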

Stellaria media = assay: Test Example 5: herbicidal effect by foliage application, plastic box (symbol P); settings: 320 g/ha, 3 weeks after application
Method in brief: (§2)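 Herbicide, formulated as an emulsion and diluted in water, is sprayed onto the aerial parts of 14-day seedlings. These were grown at 25° C. to 30° C. in sterilized diluvial soil; effects are graded after 3 weeks.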

[1] = test system: Echinochloa crus-galli var. crus-galli; assay: Test Example 3: herbicidal effect by foliage application, Wagner pot (symbol H); settings: application herbicide amount 320 g/ha
Method in brief: as §1

corn = assay: Test Example 5: effect on crop by foliage application, plastic box (symbol c); settings: 320 g/ha, 3 weeks after application
Method in brief: (§3)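 Crop seed is sown alongside grass and broadleaf weed species in spots in sterilized diluvial soil, then covered to a depth of about 1.5 cm. Plants grow in a greenhouse kept at 25° C. to 30° C.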

wheat = assay: Test Example 5: effect on crop by foliage application, plastic box (symbol e); settings: 320 g/ha, 3 weeks after application
Method in brief: as §3

Alopecurus myosuroides = assay: Test Example 5: herbicidal effect by foliage application, plastic box (symbol J); settings: 320 g/ha, 3 weeks after application
Method in brief: as §2

Setaria viridis = assay: Test Example 5: herbicidal effect by foliage application, plastic box (symbol G); settings: 320 g/ha, 3 weeks after application
Method in brief: as §2

soybean = assay: Test Example 5: effect on crop by foliage application, plastic box (symbol d); settings: 320 g/ha, 3 weeks after application
Method in brief: as §3

rapeseed = assay: Test Example 5: effect on crop by foliage application, plastic box (symbol g); settings: 320 g/ha, 3 weeks after application
Method in brief: as §3

rice plant = assay: Test Example 5: effect on crop by foliage application, plastic box (symbol b); settings: 320 g/ha, 3 weeks after application
Method in brief: as §3

Avena fatua = assay: Test Example 5: herbicidal effect by foliage application, plastic box (symbol I); settings: 320 g/ha, 3 weeks after application
Method in brief: as §2

Apera spica-venti = assay: Test Example 5: herbicidal effect by foliage application, plastic box (symbol L); settings: 320 g/ha, 3 weeks after application
Method in brief: as §2

Digitaria ciliaris = assay: Test Example 5: herbicidal effect by foliage application, plastic box (symbol F); settings: 320 g/ha, 3 weeks after application
Method in brief: as §2

Abutilon theophrasti = assay: Test Example 5: herbicidal effect by foliage application, plastic box (symbol M); settings: 320 g/ha, 3 weeks after application
Method in brief: as §2

Veronica persica = assay: Test Example 5: herbicidal effect by foliage application, plastic box (symbol R); settings: 320 g/ha, 3 weeks after application
Method in brief: as §2

Monochoria vaginalis = assay: Test Example 2: herbicidal activity, application during weed generation in submerged conditions (symbol C); settings: Table 23; application herbicide amount 320 g/ha; grade 0-5 by criteria of Test Example 1
Method: (§4) Herbicidal Activity Test by Application During Weed Generation in Submerged Conditions
(§5) After alluvial soil was placed into 1/10000 are of Wagner pot, water was poured and mixed to form a submerged condition having a water depth of 4 cm. Seeds of Echinochloa oryzacola Vasing., Scirpus juncoides, and Monochoria vaginalis were sowed in a mixed manner in the above pot and the pot was placed in the greenhouse of 25° C. to 30° C. to grow the plants. When Echinochloa oryzacola Vasing., Scirpus juncoides, and Monochoria vaginalis were grown to one leaf stage to two leaf stage, the emulsion agent of the compound of the present invention prepared in accordance with Formulation Example 2 was diluted with water so as to be a predetermined herbicide amount and the diluted emulsion agent was applied to the surface of the water. 3 weeks later from the herbicide application, the effect to each plant was investigated in accordance with the criteria of Test Example 1.

Leptochloa chinensis = assay: Test Example 3: herbicidal effect by foliage application, Wagner pot (symbol D); settings: application herbicide amount 320 g/ha
Method in brief: as §1

Chenopodium album = assay: Test Example 5: herbicidal effect by foliage application, plastic box (symbol O); settings: 320 g/ha, 3 weeks after application
Method in brief: as §2

Amaranthus retroflexus = assay: Test Example 5: herbicidal effect by foliage application, plastic box (symbol N); settings: 320 g/ha, 3 weeks after application
Method in brief: as §2

beet = assay: Test Example 5: effect on crop by foliage application, plastic box (symbol f); settings: 320 g/ha, 3 weeks after application
Method in brief: as §3

Lolium multiflorum Lam. = assay: Test Example 5: herbicidal effect by foliage application, plastic box (symbol K); settings: 320 g/ha, 3 weeks after application
Method in brief: as §2

[2] = test system: Echinochloa crus-galli var. crus-galli; assay: Test Example 5: herbicidal effect by foliage application, plastic box (symbol H); settings: 320 g/ha, 3 weeks after application
Method in brief: as §2

Galium spurium = assay: Test Example 5: herbicidal effect by foliage application, plastic box (symbol Q); settings: 320 g/ha, 3 weeks after application
Method in brief: as §2

[3] = test system: directly sowed rice plant; assay: Test Example 3: effect on crop by foliage application, Wagner pot (symbol b); settings: application herbicide amount 320 g/ha
Method in brief: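 Greenhouse culture at 25–30 °C of seeded rice, Cyperus difformis, Leptochloa chinensis and Echinochloa crus-galli var. crus-galli, in alluvial soil held under 0.1–0.5 cm of water in a Wagner pot.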

Scirpus juncoides = assay: Test Example 2: herbicidal activity, application during weed generation in submerged conditions (symbol B); settings: Table 23; application herbicide amount 320 g/ha; grade 0-5 by criteria of Test Example 1
Method: as §4, §5

[4] = test system: Echinochloa oryzacola Vasing.; assay: Test Example 2: herbicidal activity, application during weed generation in submerged conditions (symbol A); settings: Table 23; application herbicide amount 320 g/ha; grade 0-5 by criteria of Test Example 1
Method: as §4, §5

Structure (SMILES) | P: Stellaria media, herbicidal effect grade (Stellaria media) | c: corn, effect on crop grade (corn) | e: wheat, effect on crop grade (wheat) | J: Alopecurus myosuroides, herbicidal effect grade (Alopecurus myosuroides) | G: Setaria viridis, herbicidal effect grade (Setaria viridis) | d: soybean, effect on crop grade (soybean) | g: rapeseed, effect on crop grade (rapeseed) | b: directly sowed rice plant, effect on crop grade (rice plant) | I: Avena fatua, herbicidal effect grade (Avena fatua) | L: Apera spica-venti, herbicidal effect grade (Apera spica-venti) | F: Digitaria ciliaris, herbicidal effect grade (Digitaria ciliaris) | M: Abutilon theophrasti, herbicidal effect grade (Abutilon theophrasti) | R: Veronica persica, herbicidal effect grade (Veronica persica) | Herbicidal effect grade, C: Monochoria vaginalis (Monochoria vaginalis) | O: Chenopodium album, herbicidal effect grade (Chenopodium album) | N: Amaranthus retroflexus, herbicidal effect grade (Amaranthus retroflexus) | f: beet, effect on crop grade (beet) | K: Lolium multiflorum Lam., herbicidal effect grade (Lolium multiflorum Lam.) | H: Echinochloa crus-galli var. crus-galli, herbicidal effect grade [2] | Q: Galium spurium, herbicidal effect grade (Galium spurium) | also measured
CON=C(C)CC1CC(O)=C(c2c(C)cc(C#CC(C)(C)O)cc2C)C1=O (mixture of isomers) [6-036] | 1 (Herbicidal ratio of 5% or higher and lower than 20%) | 4 (Herbicidal ratio of 70% or higher and lower than 90%) | 0 (Herbicidal ratio of 5% or lower (almost no effect)) | 3 (Herbicidal ratio of 40% or higher and lower than 70%) | 4 (Herbicidal ratio of 70% or higher and lower than 90%) | 0 (Herbicidal ratio of 5% or lower (almost no effect)) | 3 (Herbicidal ratio of 40% or higher and lower than 70%) | 4 (Herbicidal ratio of 70% or higher and lower than 90%) | 3 (Herbicidal ratio of 40% or higher and lower than 70%) | 3 (Herbicidal ratio of 40% or higher and lower than 70%) | 4 (Herbicidal ratio of 70% or higher and lower than 90%) | 0 (Herbicidal ratio of 5% or lower (almost no effect)) | 3 (Herbicidal ratio of 40% or higher and lower than 70%) | 0 (Herbicidal ratio of 5% or lower (almost no effect)) | 0 (Herbicidal ratio of 5% or lower (almost no effect)) | 0 (Herbicidal ratio of 5% or lower (almost no effect)) | 0 (Herbicidal ratio of 5% or lower (almost no effect)) | 5 (Herbicidal ratio of 90% or more (almost completely withered)) | 5 (Herbicidal ratio of 90% or more (almost completely withered)) | 0 (Herbicidal ratio of 5% or lower (almost no effect)) | herbicidal effect on E, grade 0-5 (Cyperus difformis): 3 (Herbicidal ratio of 40% or higher and lower than 70%); herbicidal effect on H (Echinochloa crus-galli var. crus-galli), grade 0-5 [1]: 4 (Herbicidal ratio of 70% or higher and lower than 90%); herbicidal effect on D (Leptochloa chinensis), grade 0-5 (Leptochloa chinensis): 5 (Herbicidal ratio of 90% or more (almost completely withered)); effect on crop b (directly sowed rice plant), grade 0-5 [3]: 4 (Herbicidal ratio of 70% or higher and lower than 90%); Herbicidal effect grade, B: Scirpus juncoides (Scirpus juncoides): 0 (Herbicidal ratio of 5% or lower (almost no effect)); Herbicidal effect grade, A: Echinochloa oryzacola Vasing. [4]: 3 (Herbicidal ratio of 40% or higher and lower than 70%)
COc1cc(Br)cc(C)c1C1=C(O)CC(C(C)C(C)=O)C1=O (stereo not shown) [7-031] | 0 (Herbicidal ratio of 5% or lower (almost no effect)) | 1 (Herbicidal ratio of 5% or higher and lower than 20%) | 0 (Herbicidal ratio of 5% or lower (almost no effect)) | 3 (Herbicidal ratio of 40% or higher and lower than 70%) | 5 (Herbicidal ratio of 90% or more (almost completely withered)) | 0 (Herbicidal ratio of 5% or lower (almost no effect)) | 0 (Herbicidal ratio of 5% or lower (almost no effect)) | 4 (Herbicidal ratio of 70% or higher and lower than 90%) | 3 (Herbicidal ratio of 40% or higher and lower than 70%) | 5 (Herbicidal ratio of 90% or more (almost completely withered)) | 4 (Herbicidal ratio of 70% or higher and lower than 90%) | 0 (Herbicidal ratio of 5% or lower (almost no effect)) | 0 (Herbicidal ratio of 5% or lower (almost no effect)) | 2 (Herbicidal ratio of 20% or higher and lower than 40%) | 0 (Herbicidal ratio of 5% or lower (almost no effect)) | 0 (Herbicidal ratio of 5% or lower (almost no effect)) | 0 (Herbicidal ratio of 5% or lower (almost no effect)) | 5 (Herbicidal ratio of 90% or more (almost completely withered)) | 5 (Herbicidal ratio of 90% or more (almost completely withered)) | 0 (Herbicidal ratio of 5% or lower (almost no effect)) | E herbicidal effect grade (Cyperus difformis; Table 24): 3 (Herbicidal ratio of 40% or higher and lower than 70%); H (Echinochloa crus-galli var. crus-galli) herbicidal effect grade ([1]; Table 24): 4 (Herbicidal ratio of 70% or higher and lower than 90%); D (Leptochloa chinensis) herbicidal effect grade (Leptochloa chinensis; Table 24): 5 (Herbicidal ratio of 90% or more (almost completely withered)); b (directly sowed rice plant) effect on crop grade ([3]; Table 24): 5 (Herbicidal ratio of 90% or more (almost completely withered)); Herbicidal effect grade, B: Scirpus juncoides (Scirpus juncoides): 1 (Herbicidal ratio of 5% or higher and lower than 20%); Herbicidal effect grade, A: Echinochloa oryzacola Vasing. [4]: 0 (Herbicidal ratio of 5% or lower (almost no effect))
